Data: US20140241988A1, “METHODS AND COMPOSITIONS FOR TREATING ATRIAL FIBRILLATION” (The Regents of The University of Michigan, priority 2013, published 2014)
Entries after “also recorded” stand apart in the source; their conditions may differ.

How the values were obtained:
SCN5A = test: qPCR mRNA expression; type: cell-based, rat
Procedure: (§1) Cell Treatment: Isolated adult rat cardiac myocytes were treated with FCM or TGF-β1 (R and D systems, Minneapolis, Minn.) for 3 days in serum free medium. For PI3K pathway inhibition cells were pretreated (30 min) with 10 μM […] (Cayman Chemicals, Ann Arbor) before the treatment with TGF-β1. mRNA analysis by quantitative PCR (qPCR): Cardiac myocytes were washed with PBS and lysed with lysis buffer. RNA was isolated from the myocardial tissue using RNAeasy kit from Qiagen (Qiagen, Valencia, Calif.) according to the manufacturer's instructions. Isolated RNA from these samples was treated with DNase for 15 min at room temperature (Qiagen, Valencia, Calif.). 100 ng of DNA-free total poly-A tail RNA (mRNA) was first subjected to synthesis of cDNA using Oligo dT primers applying SuperScript III First-Strand Synthesis System from Invitrogen (Invitrogen, Carlsbad, Calif.) according to the manufacturer's instructions. cDNA from 20 ng of total RNA was then subjected to real-time RT-PCR using predesigned taqman probe primers specific for rat Scn5a (Rn00565502), Kcnip2 (Kchip2; Rn01411451) and kcnd2 (Rn01456260) (Applied Biosystems, California). No-template controls and no-RT controls were run during each experiment to detect any RNA and/or DNA contamination. Results are expressed as fold expression of gene of interest normalized to GAPDH expression in the sample. Western blotting: Control and treated cardiac myocytes were washed in cold PBS, lysed directly in the modified loading buffer (25 mmol/l Tris.HCl; 150 mmol/l NaCl; 1 mmol/l EDTA; 4 mmol/l NaF; 2 mmol/l Sodium ortho-vanadate; 1% Triton X-100, protease inhibitor, 5% glycerol, 1% SDS, 0.05% bromophenol blue, 5% β mercaptoethanol) and sonicated. The lysate (20 μl) were then subjected SDS-PAGE as described earlier. The blots were incubated with rabbit pFOXO1 antibody, 1:500 (Cell Signaling) or rabbit GAPDH antibody, 1:5000 (Sigma-Aldrich, St. Louis, Mo.). Patch-clamp experiments: Whole-cell ionic currents were recorded from adult rat ventricular myocytes. All recordings were conducted at room temperature. Sodium current recordings were conducted in a low-sodium extracellular solution containing (in mM): NaCl, 10; MgCl2, 1; CaCl2, 1.8; CdCl2, 0.1; HEPES, 20; CsCl, 127.5; glucose, 11. The pipette solution contained (in mM): NaCl, 5; CsF, 135; EGTA, 10; MgATP, 5; HEPES, 5. To characterize the voltage dependence of the peak INa, single cells were held at −120 mV, and 200 msec voltage steps were applied from −90 to +30 mV in 5 mV increments. The interval between voltage steps was 3 sec. Voltage-dependence of inactivation was assessed by holding cells at various potentials from −160 to −40 mV followed by a 30 msec test pulse to −40 mV to elicit INa. […]

FOXO1 = test: Western blot of FOXO1 phosphorylation; type: cell-based, rat
Procedure: as §1, with “The blots were incubated with rabbit pFOXO1 antibody, 1:500 (Cell Signaling) or rabbit GAPDH antibody, 1:5000 (Sigma-Aldrich, St. Louis, Mo.).” left out, “All recordings were conducted at room temperature. Sodium current recordings were conducted in a low-sodium extracellular solution containing (in mM): NaCl, 10; MgCl2, 1; CaCl2, 1.8; CdCl2, 0.1; HEPES, 20; CsCl, 127.5; glucose, 11. The pipette solution contained (in mM): NaCl, 5; CsF, 135; EGTA, 10; MgATP, 5; HEPES, 5. To characterize the voltage dependence of the peak INa, single cells were held at −120 mV, and 200 msec voltage steps were applied from −90 to +30 mV in 5 mV increments. The interval between voltage steps was 3 sec.” left out

[1] = tested on: adult rat ventricular myocytes; test: Whole-cell patch clamp, peak inward sodium current (INa); type: cell-based
Procedure: as §1

[2] = tested on: adult rat ventricular myocytes; test: Whole-cell patch clamp, transient outward potassium current (Ito); type: cell-based; details: 72 hr
From the text: The extracellular solution for transient outward potassium current (Ito) contained (in mM): 136 NaCl, 4 KCl, 1.8 CaCl2, 2 MgCl2, 10 HEPES, 0.03 tetrodotoxin, 0.01 nifedipine, and 14 glucose, pH 7.35. The pipette solution contained (in mM):135 KCl, 1 MgCl2, 10 EGTA, 10 HEPES, 5 glucose, pH 7.2. Voltage-gated outward K+ currents were evoked during 5-s depolarizing voltage steps to potentials between −40 and +60 mV from a holding potential of −70 mV; voltage steps were presented in 10 mV increments at 15 s intervals
(§2) In all experiments, cells were exposed to one of the following for 72 hrs prior to the experiment: control medium, FCM or TGF-β1.

[3] = tested on: adult rat ventricular myocytes; test: Current clamp action potential recording; type: cell-based
Procedure: Action potentials were recorded from individual myocytes using the current clamp mode of the MultiClamp 700B amplifier after gigaseal formation and patch break. Stimulus pulses (1-2 ms duration) were generated using a World Precision Instruments DS8000 stimulator (Sarasota, Fla.). The bath solution contained (in mM): NaCl: 148, KCl: 5.4, MgCl2: 1, CaCl2 1.8, NaH2PO4: 0.4, HEPES: 15, Glucose: 5.5, pH 7.4 with NaOH. The pipette solution contained (in mM), KCl: 20, K-aspartate: 90, KH2PO4: 10, EDTA: 5.0, K2ATP: 1.9, HEPES: 5.0 and Mg2+ 7.9; pH 7.2 (KOH)
as §2

KCND2 = test: qPCR mRNA expression; type: cell-based, rat; details: 1 ng/ml, 72 hr
Procedure: as §1

KCNIP2 = test: qPCR mRNA expression; type: cell-based, rat; details: 1 ng/ml, 72 hr
Procedure: as §1

[4] = tested on: adult sheep atrial fibroblasts; test: Wound healing (migration) assay; type: cell-based; details: Gal-3 10 μg/ml, days 0-2
Procedure: (§3) Wound healing experiments were performed to investigate if exogenous Gal-3 can increase myofibroblast migration in vitro (FIG. 3). Adult sheep atrial fibroblasts were cultured in 96-well plates until confluent. Before serum starvation, cells were stained with cell tracker dye and DAPI. A wound was created by scraping a semi-confluent monolayer of cells with a 1 ml pipette tip. Thereafter, cells underwent serum starvation in DMEM with 5% FBS for 6 hrs. Comparisons were made between untreated and Gal-3 treated (1 μg/ml or 10 μg ml) cells. The wound was imaged at 4 different locations at 3 different time points (days 0, 1 and 2). The size of the wound was quantified using the NIS element program by Nikon. […] Next, to investigate the effects of Gal-3 on myofibroblast proliferation, adult sheep atrial fibroblasts were treated with recombinant human Gal-3 (EMD chemicals, USA) for 24 hours in the presence of SFM. FM was included as a positive control. Cell proliferation was measured using cell proliferation reagent WST (Roche Diagnostics, USA). […] Such concentrations are in the same range used previously (Sharma et al., Circulation. 2004; 110:3121-3128) to investigate Gal-3 induced fibroblast proliferation in the cardiomyopathic heart.

[5] = tested on: adult sheep atrial myofibroblasts; test: Cell proliferation assay (WST reagent); type: cell-based; details: Gal-3 1-30 μg/ml, 24 hours, SFM
Procedure: as §3

Compound: O=c1cc(N2CCOCC2)oc2c(-c3ccccc3)cccc12 [LY 29004, reference compound]
- TGF-β1 induced increase in SCN5A transcription (SCN5A; pretreated with PI3K inhibitor (10 μM, 30 min)): failed to show increased SCN5A transcription
- phosphorylation of FOXO1 in TGF-β1 treated cells (FOXO1; pretreated with PI3K inhibitor): inhibited

Compound: TGF-β1: exogenous TGF-β1 cytokine (R and D systems, Minneapolis, Minn.)
- more inward current compared to control medium ([1]; 1 ng/ml, at −40V (so in the source)): about 40%
- EC50 for increase of peak inward INa density ([1]; 72 hours, 0.001-1.0 ng/ml): 0.007 ng/mL
- voltage dependence of activation (m∞) and inactivation (h∞) ([1]; 72 hr treatment): neither the m∞ nor the h∞ curve was modified
- maximum INa increase ([1]; at 1 ng/ml (also seen at 10 ng/ml), 72 hours): about 40%
- peak Ito ([2]; 1 ng/ml): significantly reduced the peak Ito but to a much modest level
- Ito current density ([2]; 10 ng/ml, 60 mV): 12.6±0.98
- Ito current density, % of control levels ([2]; 10 ng/ml, 60 mV): 57%
- reduction of Ito current density ([2]; 10 ng/ml, +20 mV): 42%
- APD30 ([3]; 10 ng/ml, BCL 1000 ms): 29.1 ± 5.6 ms
- APD30 times larger than control ([3]; 10 ng/ml, BCL 1000 ms): > 3.5 times
- APD / early afterdepolarizations ([3]; 50 ng/ml): APD was so prolonged that some cells early after depolarizations (EADs)
- decrease of KCND2 expression with respect to control (KCND2): 50.6%
- reduction of KCNIP2 mRNA levels (KCNIP2): 77%
- SCN5A transcript levels, fold increase (SCN5A; 1 ng/ml, 72 hr): 1.73±0.26 fold
- increase in phosphorylated FOXO1 vs control (FOXO1; 1 ng/ml): 67%
- time of peak FOXO1 phosphorylation (FOXO1; 1 ng/ml): 15 min

Compound: Gal-3: recombinant human Gal-3 (EMD chemicals, USA)
- rate of migration / wound healing [4]: significantly increased the rate of migration and promoted wound healing; also recorded: increases the rate of wound healing
- proliferation (number) of adult sheep atrial myofibroblasts [5]: increased the number of adult sheep atrial myofibroblasts in a concentration-dependent manner; also recorded: increases proliferation
